Experimental data from publication PMC3573010, “Bacillus megaterium Has Both a Functional BluB Protein Required for DMB Synthesis and a Related Flavoprotein That Forms a Stable Radical Species” (PLoS ONE, 2013).

Columns and labels:
[1] = target: T1, BluB(Rc) (Rhodobacter capsulatus, UniProt D5AV14); assay: HPLC of DMB formed; stopped-flow detection of 4a-peroxyflavin at […] nm; assay type: biochemical; details: O2 required; 20 mM Tris-HCl pH 8.0, 100 mM NaCl; FMN reduced by NADH (HPLC) or dithionite (stopped-flow)
T1 construct: N-terminal His6 tag with thrombin site (pET14b), expressed in E. coli BL21star(DE3)pLysS, 25 kDa on SDS-PAGE; native N-terminus MNFEQT by printed primer
T1 sequence (D5AV14 whole entry): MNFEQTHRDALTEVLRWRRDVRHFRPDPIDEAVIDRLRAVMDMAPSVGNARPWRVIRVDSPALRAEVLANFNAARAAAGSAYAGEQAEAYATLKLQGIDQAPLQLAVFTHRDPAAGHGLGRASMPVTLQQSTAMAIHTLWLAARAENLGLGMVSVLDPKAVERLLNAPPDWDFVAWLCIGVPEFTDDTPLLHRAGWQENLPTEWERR

[2] = target: T2, BluB(Bm) (Priestia megaterium, UniProt D5DCL0); assay: HPLC of DMB formed; assay type: biochemical; details: O2 required; […] Tris-HCl pH […] NaCl, […] DTT; room temperature; FMN reduced in situ by NADH
T2 construct: native N-terminus MNSFTN by printed primer
T2 sequence (D5DCL0 1-217): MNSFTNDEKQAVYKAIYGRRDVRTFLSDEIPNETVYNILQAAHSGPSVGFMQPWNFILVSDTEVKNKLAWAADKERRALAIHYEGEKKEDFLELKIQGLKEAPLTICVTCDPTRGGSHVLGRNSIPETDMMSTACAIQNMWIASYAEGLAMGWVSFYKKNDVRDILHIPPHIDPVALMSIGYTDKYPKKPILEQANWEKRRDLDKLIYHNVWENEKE

[3] = target: T3, CbiY(Bm) (Priestia megaterium, UniProt D5DG39); assay: UV-visible spectrum of purified holoprotein; heat release, HPLC and mass spectrometry; assay type: binding; details: non-covalently bound, co-purified
T3 construct: native N-terminus MTIISQLK by primer
T3 sequence (D5DG39 1-189): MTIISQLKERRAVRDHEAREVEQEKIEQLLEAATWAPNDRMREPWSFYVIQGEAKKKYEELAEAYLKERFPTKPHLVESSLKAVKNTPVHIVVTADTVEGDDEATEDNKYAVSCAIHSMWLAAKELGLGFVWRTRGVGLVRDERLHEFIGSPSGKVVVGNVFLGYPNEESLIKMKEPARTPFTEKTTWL

Cc1cc2c(cc1C)N(C[C@H](O)[C@H](O)[C@H](O)COP(=O)(O)O)c1[nH]c(=O)[nH]c(=O)c1N2 [FMNH2]
HPLC of DMB formed; stopped-flow detection of 4a-peroxyflavin at 380 nm [1]: In the case of the BluB(Rc) enzyme, rapid formation of a peroxyflavin intermediate
HPLC of DMB formed [2]: DMB formation was observed in reaction mixtures containing either BluB(Rc) or BluB(Bm)

Cc1cc2nc3c(=O)[nH]c(=O)nc-3n(C[C@H](O)[C@H](O)[C@H](O)COP(=O)(O)O)c2cc1C [FMN]
UV-visible spectrum of purified holoprotein; heat release, HPLC and mass spectro [3]: The flavin cofactor could be removed from the holoenzyme by denaturing the protein
